Measured values from patent publication US20260226101A1, “PEPTIDE WITH ANTI-INFLAMMATORY AND ANTI-MICROBIAL ACTIVITY” (priority 2023, published 2026).
Ends that are not written are not given here.

Experiments:
Assay in all cases: Time-kill assay
Type in all cases: cell-based
[1] = tested on: Escherichia coli ATCC 8739; settings: E. coli
Method: (§1) The survival of bacteria, time kill efficacy assay of IS 111 was further evaluated for activity against bacterial strain mentioned above according to CLSI reference method, with slightly modification. MICs were determined by broth microdilution assay as described above. […] Test tubes of MHB without test compound IS 111 were used as vehicle controls. Overnight cultures of the bacterial strains at cell densities of approximately 1×10^8 CFU/ml were used to inoculate both test and control tubes. The standard tube dilution method was opted to evaluate the time-kill efficacy of bacteria. Bacterial inoculum (1 mL) was diluted by adding 9 mL sterile saline solution and serially diluted up to 10^−3. […] 100 μL incubated suspension was transferred on the agar plates and spread through the spreader. Colony counts were performed after 24 h incubation at 37° C. Plates with 10-300 colonies were used for these counts, and the kill rate was determined by plotting log 10 viable counts (CFU/ml) against time. Bactericidal activity was defined as a ≥3 log 10 decreases in CFU/ml of the initial microbial population, while bacteriostatic activity was defined was defined as a <3 log 10 decrease in CFU/ml. The assay was performed in triplicate [Olufunmiso O Olajuyigbe et al., 2015; Sutthiwan Thammawat et al., 2017]
(§2) The time-kill kinetics antibacterial study of the Peptide IS 111 was carried out to assess the killing rate of the compound within a given contact time. The survival of bacteria, time kill efficacy assay of IS 111 was further evaluated for activity against Escherichia coli ATCC 8739 and Staphylococcus aureus ATCC 6538, Pseudomonas aeruginosa ATCC 9027 and Klebsiella pneumoniae ATCC 700603 according to CLSI reference method, with slightly modification. MICs were determined by broth microdilution assay as described above. […] 10. Test tubes of MHB without test compound Peptide IS 111 were used as vehicle controls. Overnight cultures of the bacterial strains at cell densities of approximately 1×10^6 CFU/ml were used to inoculate both test and control tubes.
(§3) After each interval, ten-fold dilutions were prepared with normal saline, and 100 μL incubated suspension was transferred on the agar plates and spread through the spreader. Colony counts were performed after 24 h incubation at 37° C. Plates with 10-300 colonies were used for these counts, and the kill rate was determined by plotting log 10 viable counts (CFU/ml) against time. Bactericidal activity was defined as a ≥3 log 10 decrease in CFU/ml of the initial microbial population, while bacteriostatic activity was defined as a <3 log 10 decrease in CFU/ml. The assay was performed in triplicate. The proportion of cells surviving at 60 min was calculated, as was the mean and standard deviation. Proportions of surviving cells were compared using Student's 2-tailed t-test, assuming unequal variance and differences were considered significant where p≤0.05.

[2] = tested on: Klebsiella pneumoniae ATCC 700603; settings: K. pneumoniae
Method: as §1, §2, §3

[3] = tested on: Staphylococcus aureus ATCC 6538; settings: S. aureus
Method: as §1, §2, §3

With “FAKKFAK [IS 111, Phe-Ala-Lys-Lys-Phe-Ala-Lys]” the Viable count ([1]; 0.5 × MIC, 0 h) was 6.4 ± 0.48 1 × 10^5 CFU/ml, the Viable count ([1]; 0.5 × MIC, 1 h) was 5.5 ± 0.28 1 × 10^5 CFU/ml and the Viable count ([1]; 0.5 × MIC, 2 h) was 5.0 ± 0.20 1 × 10^5 CFU/ml. For the same substance, the Viable count ([1]; 0.5 × MIC, 3 h) was 4.2 ± 0.10 1 × 10^5 CFU/ml, the Viable count ([1]; 0.5 × MIC, 4 h) was 3.7 ± 0.08 1 × 10^5 CFU/ml and the Viable count ([1]; 0.5 × MIC, 5 h) was 2.9 ± 0.35 1 × 10^5 CFU/ml. The Viable count ([1]; 0.5 × MIC, 12 h) was 2.5 ± 0.35 1 × 10^5 CFU/ml, the Viable count ([1]; 0.5 × MIC, 24 h) was 2.3 ± 0.43 1 × 10^5 CFU/ml and the Reduction in viability ([1]; 0.5×MIC (0.78 μg/ml), 24 h) was 2 log 10 CFU/ml. The “Type of activity (bacteriostatic or bactericidal)” value (“Type of activity” for short) ([1]; 0.5×MIC and 1×MIC, 24 h) was “bacteriostatic”, the Viable count ([1]; 1 × MIC, 0 h) was 6.5 ± 0.10 1 × 10^5 CFU/ml and the Viable count ([1]; 1 × MIC, 1 h) was 4.2 ± 0.45 1 × 10^5 CFU/ml. The Viable count ([1]; 1 × MIC, 2 h) was 2.1 ± 0.38 1 × 10^5 CFU/ml, the Viable count ([1]; 1 × MIC, 3 h) was 1.2 ± 0.28 1 × 10^5 CFU/ml and the Viable count ([1]; 1 × MIC, 4 h) was 0.6 ± 0.20 1 × 10^5 CFU/ml. The Viable count ([1]; 1 × MIC, 5 h) was 0.4 ± 0.10 1 × 10^5 CFU/ml, the Viable count ([1]; 1 × MIC, 12 h) was 0.2 ± 0.08 1 × 10^5 CFU/ml and the Viable count ([1]; 1 × MIC, 24 h) was 0 1 × 10^5 CFU/ml. For the same substance, the “Time to complete reduction of initial inoculum” value ([1]; 1×MIC) was 24 h, the Viable count ([1]; 5 × MIC, 0 h) was 6.5 ± 0.23 1 × 10^5 CFU/ml and the Viable count ([1]; 5 × MIC, 1 h) was 0.5 ± 0.05 1 × 10^5 CFU/ml. The Viable count ([1]; 5 × MIC, 2 h) was 0.2 ± 0.05 1 × 10^5 CFU/ml, the Viable count ([1]; 5 × MIC, 3 h) was 0 1 × 10^5 CFU/ml and the Viable count ([1]; 5 × MIC, 4 h) was 0 1 × 10^5 CFU/ml. The Viable count ([1]; 5 × MIC, 5 h) was 0 1 × 10^5 CFU/ml, the Viable count ([1]; 5 × MIC, 12 h) was 0 1 × 10^5 CFU/ml and the Viable count ([1]; 5 × MIC, 24 h) was 0 1 × 10^5 CFU/ml. For the same substance, the Viable count ([2]; 0.5 × MIC, 0 h) was 4.8 ± 0.50 1 × 10^5 CFU/ml, the Viable count ([2]; 0.5 × MIC, 1 h) was 4.2 ± 0.35 1 × 10^5 CFU/ml and the Viable count ([2]; 0.5 × MIC, 2 h) was 3.4 ± 0.55 1 × 10^5 CFU/ml. For the same substance, the Viable count ([2]; 0.5 × MIC, 3 h) was 2.9 ± 0.45 1 × 10^5 CFU/ml, the Viable count ([2]; 0.5 × MIC, 4 h) was 2.1 ± 0.48 1 × 10^5 CFU/ml and the Viable count ([2]; 0.5 × MIC, 5 h) was 1.7 ± 0.30 1 × 10^5 CFU/ml. For the same substance, the Viable count ([2]; 0.5 × MIC, 12 h) was 1.5 ± 0.33 1 × 10^5 CFU/ml, the Reduction in viability ([2]; 0.5×MIC (3.13 μg/ml), 24 h) was < 1 log 10 CFU/ml and the “Type of activity” value ([2]; 0.5×MIC, 24 h) was “bacteriostatic”. For the same substance, the Viable count ([2]; 0.5×MIC, 24 h) was 0.8 ± 0.13 1 × 10^5 CFU/ml, the Viable count ([2]; 1 × MIC, 0 h) was 5.1 ± 0.23 1 × 10^5 CFU/ml and the Viable count ([2]; 1 × MIC, 1 h) was 4.0 ± 0.18 1 × 10^5 CFU/ml. The Viable count ([2]; 1 × MIC, 2 h) was 1.9 ± 0.40 1 × 10^5 CFU/ml, the Viable count ([2]; 1 × MIC, 3 h) was 1.2 ± 0.15 1 × 10^5 CFU/ml and the Viable count ([2]; 1 × MIC, 4 h) was 0.6 ± 0.03 1 × 10^5 CFU/ml. For the same substance, the Viable count ([2]; 1 × MIC, 5 h) was 0.5 ± 0.05 1 × 10^5 CFU/ml, the Viable count ([2]; 1 × MIC, 12 h) was 0.2 ± 0.15 1 × 10^5 CFU/ml and the Viable count ([2]; 1 × MIC, 24 h) was 0 1 × 10^5 CFU/ml. For the same substance, the “Time to bacteriostatic activity” value ([2]; 1×MIC (6.25 μg/ml)) was ≤ 24 h, the Viable count ([2]; 5 × MIC, 0 h) was 5.6 ± 0.18 1 × 10^5 CFU/ml and the Viable count ([2]; 5 × MIC, 1 h) was 1.8 ± 0.13 1 × 10^5 CFU/ml. For the same substance, the Viable count ([2]; 5 × MIC, 2 h) was 0.9 ± 0.08 1 × 10^5 CFU/ml, the Viable count ([2]; 5 × MIC, 3 h) was 0.6 ± 0.08 1 × 10^5 CFU/ml and the Viable count ([2]; 5 × MIC, 4 h) was 0.4 ± 0.05 1 × 10^5 CFU/ml. For the same substance, the Viable count ([2]; 5 × MIC, 5 h) was 0 1 × 10^5 CFU/ml, the Viable count ([2]; 5 × MIC, 12 h) was 0 1 × 10^5 CFU/ml and the Viable count ([2]; 5 × MIC, 24 h) was 0 1 × 10^5 CFU/ml. The “Time to bacteriostatic activity” value ([2]; 5×MIC (31.25 μg/ml)) was ≤ 5 h, the Viable count ([3]; 0.5 × MIC, 0 h) was 5.1 ± 0.65 1 × 10^5 CFU/ml and the Viable count ([3]; 0.5 × MIC, 1 h) was 4.6 ± 0.48 1 × 10^5 CFU/ml. The Viable count ([3]; 0.5 × MIC, 2 h) was 3.8 ± 0.68 1 × 10^5 CFU/ml, the Viable count ([3]; 0.5 × MIC, 3 h) was 3.2 ± 0.58 1 × 10^5 CFU/ml and the Viable count ([3]; 0.5 × MIC, 4 h) was 2.5 ± 0.58 1 × 10^5 CFU/ml. The Viable count ([3]; 0.5 × MIC, 5 h) was 2.1 ± 0.43 1 × 10^5 CFU/ml, the Viable count ([3]; 0.5 × MIC, 12 h) was 1.8 ± 0.43 1 × 10^5 CFU/ml and the Reduction in viability ([3]; 0.5×MIC (1.56 μg/ml), 24 h) was 2 log 10 CFU/ml. The “Type of activity” value ([3]; 0.5×MIC, 24 h) was “bacteriostatic”, the Viable count ([3]; 0.5×MIC, 24 h) was 1.2 ± 0.23 1 × 10^5 CFU/ml and the Viable count ([3]; 1 × MIC, 0 h) was 5.3 ± 0.10 1 × 10^5 CFU/ml. For the same substance, the Viable count ([3]; 1 × MIC, 1 h) was 3.7 ± 0.43 1 × 10^5 CFU/ml, the Viable count ([3]; 1 × MIC, 2 h) was 1.6 ± 0.48 1 × 10^5 CFU/ml and the Viable count ([3]; 1 × MIC, 3 h) was 0.7 ± 0.15 1 × 10^5 CFU/ml. The Viable count ([3]; 1 × MIC, 4 h) was 0.3 ± 0.15 1 × 10^5 CFU/ml, the Viable count ([3]; 1 × MIC, 5 h) was 0.2 ± 0.00 1 × 10^5 CFU/ml and the Viable count ([3]; 1 × MIC, 12 h) was 0 1 × 10^5 CFU/ml. The Viable count ([3]; 1 × MIC, 24 h) was 0 1 × 10^5 CFU/ml, the “Time to bacteriostatic activity” value ([3]; 1×MIC (3.13 μg/ml)) was ≤ 12 h and the Viable count ([3]; 5 × MIC, 0 h) was 5.6 ± 0.30 1 × 10^5 CFU/ml. The Viable count ([3]; 5 × MIC, 1 h) was 0.8 ± 0.13 1 × 10^5 CFU/ml, the Viable count ([3]; 5 × MIC, 2 h) was 0.4 ± 0.08 1 × 10^5 CFU/ml and the Viable count ([3]; 5 × MIC, 3 h) was 0 1 × 10^5 CFU/ml. The Viable count ([3]; 5 × MIC, 4 h) was 0 1 × 10^5 CFU/ml, the Viable count ([3]; 5 × MIC, 5 h) was 0 1 × 10^5 CFU/ml and the Viable count ([3]; 5 × MIC, 12 h) was 0 1 × 10^5 CFU/ml. For the same substance, the Viable count ([3]; 5 × MIC, 24 h) was 0 1 × 10^5 CFU/ml and the “Time to bacteriostatic activity” value ([3]; 5×MIC (15.6 μg/ml)) was ≤ 2 h.
